Key:
[1] = system: HIV (denoted NL4-3); assay type: cell-based; conditions: NL4-3 envelope
[2] = system: AMLV; assay type: cell-based; conditions: AMLV envelope
[3] = system: VSV; assay type: cell-based
[4] = Working Example IV: beta agonist response in heart failure patient; assay type: in vivo, human; conditions: 0.1 mg/kg LNMA for 24 hours; improves from 3 L/min
Protocol: A person with heart failure is admitted to a hospital for a dobutamine holiday (where a congestive heart failure patient spends 1-2 days in the hospital to receive a dobutamine drip every month or so). The patient is administered 0.1 mg/kg LNMA for 24 hours. Beta agonist sensitive response as measured by cardiac output improves from 3 L/min. to 3.5 L/min.

[5] = Working Example V: asthma exacerbation frequency; assay type: in vivo, human; conditions: 1 gm/day LNMA four times a week for a year; normally four exacerbations of asthma per year
From the text: An asymptomatic person who normally has four exacerbations of asthma per year is given 1 gm/day LNMA four times a week for a year. Exacerbation frequency decreases to once a year.

[6] = system: HIV; assay: Working Example I: prophylaxis after exposure to HIV positive partner; assay type: in vivo, human; conditions: 1 gm L-NMMA Q 6 hrs for 3 days with AZT 600 mg; day 7
Protocol: A person finds that their partner the previous night is HIV positive. They present to the Emergency Room where they are given a prophylactic dose of AZT (600 mg dose) and a dose of 1 gm L-NMMA Q 6 hrs for 3 days. Blood titers for HIV are restive at day 7.

[7] = system: influenza A; assay: Working Example XVII: prophylaxis in immunocompromised patient exposed to influenza; assay type: in vivo, human; conditions: 5 gms/day L-NMA p.o. for one week, then amantadine 100 mg p.o. b.i.d. for two weeks
Protocol: An immunocompromised patient is exposed to a patient diagnosed with influenza. The patient is given 5 gms/day L-NMA p.o. After one week the patient tests positive for influenza A and L-NMA administration is stopped and the patient is given amantadine, 100 mg p.o., b.i.d. for two weeks.

[8] = system: EGFR expressing metastatic colorectal cancer; assay: Working Example XIII: EGFR expressing metastatic colorectal cancer patient; assay type: in vivo, human; conditions: 5 gm L-NMA or 10 mg vitamin B12 infused concurrently with cebuximab
Protocol: A person with EGFR expressing metastatic colorectal cancer is given an initial loading dose of 400 mg/m^2 cebuximab as a 120 minute infusion at 2.5 mL/min with weekly maintenance doses of 250 mg/M^2 over 60 minutes at 2.5 mL/min. Concurrently the patient is infused with 5 gm L-NMA or 10 mg vitamin B12.

[9] = Working Example XIV: unstable angina patient, abciximab plus NO inhibitor/scavenger; assay type: in vivo, human; conditions: L-NMA (5g) or 10 mg vitamin B-12 IV with abciximab and heparin; at 30 days
Protocol: A patient with unstable angina presents to the emergency room.
Abciximab is administered at 0.25 mg/kg as an intravenous bolus followed by infusion of […] for 12 hours. Heparin is concurrently administered in a different line with an initial dosage of 70 μg/kg with continuing infusion to maintain ACT of 200-300.
L-NMA (5g) or 10 mg vitamin B-12 is administered IV through a different line.
Need for urgent revascularization is only 2% at 30 days.

[10] = system: hepatitis C; assay: Working Example XI: transfusion of hepatitis C infected whole blood containing L-NMA; assay type: in vivo, human; conditions: whole blood containing 1 gm L-NMA per unit, infected with hepatitis C
From the text: Whole blood containing 1 gm L-NMA per unit is transfused into a patient.

[11] = Working Example XII: atherosclerosis patient, anti-VEGFR plus NO inhibitor/scavenger; assay type: in vivo, human; conditions: 2 gms/day L-NMA or 10 mg/day vitamin B-12 with 100 mg/kg anti-VEGFR three times a week; six months later
Protocol: A person with atherosclerosis is administered 100 mg/kg anti-VEGFR three times a week via infusion and 2 gms/day of L-NMA or 10 mg/day vitamin B-12.

[12] = system: colon cancer; assay: Working Example III: prophylaxis of colon cancer in immunocompromised patient; assay type: in vivo, human; conditions: 5 gm LNMA or 10 mg vitamin B12 infused concurrently with cetuximab; two years later
Protocol: An immunocompromised patient at risk for colon cancer is given an initial loading dose of 200 mg/M^2 cetuximab as a 120 minute infusion with weekly maintenance doses of 125 mg/M^2 over 60 minutes weekly. Perfusion rate is 4 mL/min. Concurrently the patient is infused with 5 gm LNMA or 10 mg vitamin B12.
For each 50 ml vial: • 100 mg cetuximab • at a concentration of 2 mg/ml • 1mg LNMA or 2 mg Vitamin B-12 • 8.48 mg/ml sodium chloride • 1.88 mg/ml sodium phosphate dibasic heptahydrate • 0.42 mg/ml sodium phosphate monohydrate • water for injection to […]
The composition is administered in the case of Working Example III.

[13] = system: E.coli and HIV; assay: Working Example II: prophylaxis after exposure to blood infected by E.coli and HIV; assay type: in vivo, human; conditions: B12 10 mg with AZT 600 mg and ampicillin 1 gm for 6 days; at a week
Protocol: A patient is exposed to blood infected by “E.coli” and HIV following coronary artery bypass surgery. AZT (prophylactic dose of 600 mg) and B12 (which scavenges NO) (dose 10 mg) are given in combination with ampicillin (prophylactic dose of 1 gm) for 6 days Bacterial and HIV titer are undetectable at a week.

[14] = compared to envelope protein with no anti-CD4 or inhibitor

Row | Compound | Mean (cells infected) ([1]; […], no-inhibitor NL4-3 mean 108400, cells only 66) | % Infection [1, 14] [%] | Mean (cells infected) ([2]; […], no-inhibitor AMLV mean 164904) | % Infection [2, 14] [%] | % Infection [3] [%] | Mean (cells infected) [3] | Beta agonist sensitive response as measured by cardiac output [4] [L/min] | Exacerbation frequency [5] | Blood titers for HIV [6] | Flu symptoms [7] | disease related symptoms [8] | Need for urgent revascularization [9] [%] | development of hepatitis C [10] | plaque destabilization and heart attack [11] | colon cancer status [12] | Bacterial and HIV titer [13]
1 | COC(=O)[C@@H](N)CCCNC(=N)N[N+](=O)[O-] [Inhibitor A, N^G-nitro-L-arginine methyl ester] | 50359 | 46.5 | 60090 | 36.4 | 41.9 | 120209 |  |  |  |  |  |  |  |  |  | 
2 | CNC(=N)NCCC[C@H](N)C(=O)O [L-NMA, L-methylarginine] |  |  |  |  |  |  | 3.5 | once a year | restive | Flu symptoms disappear | Improvement in disease related symptoms is noted | 2 | does not develop hepatitis C | plaque is not destabilized and no heart attack has occurred | colon cancer free | 
3 | C/C1=C2/[N-][C@H]([C@H](CC(N)=O)[C@@]2(C)CCC(=O)NC[C@@H](C)OP(=O)([O-])O[C@H]2[C@@H](O)[C@@H](n3cnc4cc(C)c(C)cc43)O[C@@H]2CO)[C@]2(C)N=C(/C(C)=C3N=C(/C=C4N=C1[C@@H](CCC(N)=O)C\4(C)C)[C@@H](CCC(N)=O)[C@]\3(C)CC(N)=O)[C@@H](CCC(N)=O)[C@]2(C)CC(N)=O.[Co+3].[OH-] [vitamin B12, hydroxocobalamin] |  |  |  |  |  |  |  |  |  |  | Improvement in disease related symptoms is noted | 2 |  | plaque is not destabilized and no heart attack has occurred | colon cancer free | undetectable
